Experimental data reported in US20140329275A1, “BIOCATALYSIS CELLS AND METHODS” (REGENTS OF THE UNIVERSITY OF MINNESOTA, priority 2011, published 2014).

What was measured:
[1] = biological target: IPDC (Salmonella enterica, UniProt H9L492); settings: ketoleucine vs ketovaline
[2] = tested on: KIVD; settings: Yep et al., Bioorg. Chem. 34:325-336 (2006); cited from earlier work

IPDC, sequence (H9L492 1-550): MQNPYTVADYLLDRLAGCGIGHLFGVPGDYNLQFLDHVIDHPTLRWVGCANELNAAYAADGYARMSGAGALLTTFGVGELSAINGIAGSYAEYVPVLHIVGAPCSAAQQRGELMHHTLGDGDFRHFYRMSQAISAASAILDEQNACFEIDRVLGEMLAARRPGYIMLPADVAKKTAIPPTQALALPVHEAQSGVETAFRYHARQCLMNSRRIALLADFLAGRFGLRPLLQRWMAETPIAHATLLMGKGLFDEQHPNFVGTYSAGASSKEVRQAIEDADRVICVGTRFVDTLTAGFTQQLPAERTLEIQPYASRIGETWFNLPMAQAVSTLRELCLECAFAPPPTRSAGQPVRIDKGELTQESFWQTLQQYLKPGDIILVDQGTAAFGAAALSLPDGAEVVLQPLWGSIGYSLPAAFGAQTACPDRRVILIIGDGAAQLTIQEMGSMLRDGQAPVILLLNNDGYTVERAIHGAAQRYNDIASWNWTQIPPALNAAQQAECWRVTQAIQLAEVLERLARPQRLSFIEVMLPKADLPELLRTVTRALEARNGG

CC(C)CC(=O)C(=O)O [ketoleucine]
specificity constant kcat/Km of IPDC, fold higher than towards ketovaline [1]: 4 fold
Km [2]: 37 mM
kcat of KIVD [2]: 49 s⁻¹

CC(C)C(=O)C(=O)O [ketovaline]
Km [2]: 2.8 mM
kcat of KIVD [2]: 48 s⁻¹
